Tests used:
[1] = Plasma pharmacokinetics after single oral dose in ORA-Plus or SyrSpend SF (Example 6), LC-MS/MS; assay type: in vivo, Sprague Dawley rats; details: for AUC % Extrap / Cl_F / Vz_F / AUC(0-inf) / AUC(0-t) / Cmax / Tmax / half-life: rat plasma; for % AUC0-last test vs reference: rats, ratio of group averages; for AUC(0-inf) / AUC(0-t) / Cmax / Tmax / half-life: female, rat, plasma, po
[2] = Particle size distribution (Cilas 1180) of as-received and jet milled API (Example 8); assay type: physicochemical
Method: Compound 2 API ‘as-received’ (Lots #2064-118-8, #2064-146-9, and # BPR-WS 1828-194D(2HCl)—B1-19) were analyzed for PSD on a Cilas 1180 particle size analyzer. Subsequently jet milled API batches B # L0441-20-JM51mmP1, B # L0441-20-JM51mmP2, B # L0441-20-JM51mmP3, and B # L0441-84-JM146mmP1 were also analyzed for PSD Approximately 50 mg Compound 2-2HCl was dispersed into 40 mL 0.2% (w/w) span 80 in n-hexanes (dispersant) and allowed to mix for 60 minutes. API was kept suspended in dispersant via stirring and sonication during test.
A jet milling study was performed on a batch of Compound 2 2HCl with jet mill Fluid Energy Asset #00170 outfitted with a 51 mm collection loop. Batches B # L0441-29-JM51mmP1, B # L0441-29-JM51mmP2, and B # L0441-29-JM51mmP3 were created from ˜10 g of Compound 2 lot # BPR-WS1828-194D(2HCl)-B1-19 subjected to 3 passes. Jet mill settings for grinder nozzle and pusher nozzle as follows: Pass 1 grinder nozzle=60 psi & pusher nozzle=80 psi, Pass 2 and 3 grinder nozzle=50 psi & pusher nozzle=70 psi.
After successfully jet milling on the R&D scale, B # L0441-84-JM146mmP1 was created from Compound 2-2HCl lot # BPR-17-87-B1-21d which was processed with a single pass to confirm GMP scale up conditions in the R&D laboratory by passing 85 g through the GMP jet mill Jet-O-Mizer Asset #01 16 Model 0101 outfitted with 146 mm collection loop using a standard nylon 4×48-inch collection sock inside a PTFE 4×48-inch sock to minimize fines loss. The pressure settings for the grinder and pusher nozzle were: Grinder nozzle 60 psi, Pusher nozzle 70 psi.

[3] = Solubility of the 2HCl salt in dosing vehicle (Example 6); assay type: physicochemical; details: SyrSpend SF Solution (dosing vehicle), aqueous with cosolvent or surfactant or cyclodextrin; pH ~2.5
Excerpt: Dose levels of Compound 2 were based on the free base, not the salt. […] Dosage forms of Compound 2 2HCl in ORA-Plus® and in SyrSpend® SF Cherry appeared to be suspension instead of clear solutions. Final physical appearance matched that of the vehicle used. Due to opaque properties of vehicles, full solubility could not be confirmed. However, resultant dosing material appeared homogenous. Dosage forms of Compound 2 2HCl in ORA-Plus® and in SyrSpend® SF Cherry were made fresh immediately prior to use.

[4] = G3: 2HCl, 24 mg/kg single oral dose, ORA-plus
[5] = G4: 2HCl, 48 mg/kg single oral dose, ORA-plus
[6] = G9: 2HCl, 24 mg/kg single oral dose, SyrSpend
[7] = G10: 2HCl, 48 mg/kg single oral dose, SyrSpend, n = 2
[8] = G11: 2HCl, 60 mg/kg single oral dose, SyrSpend, n = 4
[9] = Sprague Dawley, 24 mg/kg, G3: 2HCl, 24 mg/kg single oral dose, ORA-plus
[10] = Sprague Dawley, 24 mg/kg, G9: 2HCl, 24 mg/kg single oral dose, SyrSpend
[11] = Sprague-Dawley, 24 mg/kg, G9: 2HCl, 24 mg/kg single oral dose, SyrSpend
[12] = Sprague-Dawley, 48 mg/kg, G4: 2HCl, 48 mg/kg single oral dose, ORA-plus
[13] = Sprague-Dawley, 48 mg/kg, G10: 2HCl, 48 mg/kg single oral dose, SyrSpend
[14] = Sprague-Dawley, 60 mg/kg, G11: 2HCl, 60 mg/kg single oral dose, SyrSpend
[15] = Lot 2064-118-8, API as received
[16] = Lot 2064-146-9, API as received
[17] = Lot BPR-17-87-B1-21d, API as received
[18] = Lot BPR-17-87-B1-21d, jet milled batch B#L0441-84-JM146mmP1
[19] = Lot BPR-WS1828-194D(2HCL)-B1-19, API as received
[20] = Lot BPR-WS1828-194D(2HCL)-B1-19, jet milled batch B#L0441-20-JM51mmP1
[21] = Lot BPR-WS1828-194D(2HCL)-B1-19, jet milled batch B#L0441-20-JM51mmP2
[22] = Lot BPR-WS1828-194D(2HCL)-B1-19, jet milled batch B#L0441-20-JM51mmP3

CC(C)(C)CNCCn1c(Sc2cc3c(cc2I)OCO3)nc2c(N)ncnc21 [Compound 2 2HCl]
AUC % Extrap [1, 4]: 4.00 ± 1.84%
Cl_F [1, 4]: 357.3 ± 155 mL/min/kg
Vz_F [1, 4]: 81.00 ± 80.22 L/kg
AUC % Extrap [1, 5]: 1.32 ± 2.64%
Cl_F [1, 5]: 154 ± 76.5 mL/min/kg
Vz_F [1, 5]: 28.42 ± 13.10 L/kg
AUC % Extrap [1, 6]: 4.72 ± 4.49%
Cl_F [1, 6]: 405.8 ± 204.3 mL/min/kg
Vz_F [1, 6]: 129.96 ± 81.45 L/kg
AUC % Extrap [1, 7]: 2.05 ± 0.35 %
Cl_F [1, 7]: 124 ± 23 mL/min/kg
Vz_F [1, 7]: 45.95 ± 8.11 L/kg
AUC % Extrap [1, 8]: 0.68 ± 0.89 %
Cl_F [1, 8]: 219.2 ± 72.5 mL/min/kg
Vz_F [1, 8]: 55.47 ± 25.73 L/kg
% AUC0-last test vs reference ([1]; Group 3 (24 mg/kg 2HCl ORA-plus) vs Group 9 (24 mg/kg 2HCl SyrSpend)): 109.55%
% AUC0-last test vs reference ([1]; Group 4 (48 mg/kg 2HCl ORA-plus) vs Group 10 (48 mg/kg 2HCl SyrSpend)): 73.71%
% AUC0-last test vs reference ([1]; Group 9 (24 mg/kg 2HCl SyrSpend) vs Group 10 (48 mg/kg 2HCl SyrSpend)): 13.71%
% AUC0-last test vs reference ([1]; Group 9 (24 mg/kg 2HCl SyrSpend) vs Group 11 (60 mg/kg 2HCl SyrSpend)): 24.05%
% AUC0-last test vs reference ([1]; Group 10 (48 mg/kg 2HCl SyrSpend) vs Group 11 (60 mg/kg 2HCl SyrSpend)): 175.45%
AUC(0-inf) [1, 9]: 1340 ± 678 ng·h/mL
AUC(0-t) [1, 9]: 1290 ± 666 ng·h/mL
Cmax [1, 9]: 407 ± 278 ng/mL
Tmax [1, 9]: 1.6 ± 0.55 h
half-life [1, 9]: 2.34 ± 1.76 h
AUC(0-inf) [1, 10]: 1240 ± 717 ng·h/mL
AUC(0-t) [1, 10]: 1180 ± 688 ng·h/mL
AUC(0-t) ([1]; Sprague Dawley, 48 mg/kg, G10: 2HCl, 48 mg/kg single oral dose, SyrSpend): 8580 ± 2220 ng·h/mL
AUC(0-inf) ([1]; Sprague Dawley, 48 mg/kg, G10: 2HCl, 48 mg/kg single oral dose, SyrSpend, n = 2): 6560 ± 1220 ng·h/mL
AUC(0-t) ([1]; Sprague Dawley, 60 mg/kg, G11: 2HCl, 60 mg/kg single oral dose, SyrSpend): 4890 ± 1310 ng·h/mL
AUC(0-inf) ([1]; Sprague Dawley, 60 mg/kg, G11: 2HCl, 60 mg/kg single oral dose, SyrSpend, n = 4): 4950 ± 1780 ng·h/mL
Cmax [1, 11]: 270 ± 184 ng/mL
Tmax [1, 11]: 1.2 ± 0.45 h
half-life [1, 11]: 3.41 ± 1.24 h
AUC(0-inf) [1, 12]: 6370 ± 3170 ng·h/mL
AUC(0-t) [1, 12]: 6320 ± 3210 ng·h/mL
Cmax [1, 12]: 1120 ± 429 ng/mL
Tmax [1, 12]: 2.2 ± 1.1 h
half-life [1, 12]: 2.18 ± 0.35 h
Cmax [1, 13]: 1140 ± 311 ng/mL
Tmax [1, 13]: 4 ± 1.41 h
half-life ([1]; Sprague-Dawley, 48 mg/kg, G10: 2HCl, 48 mg/kg single oral dose, SyrSpend, n = 2): 4.28 ± 0.04 h
Cmax [1, 14]: 825 ± 247 ng/mL
Tmax [1, 14]: 2.6 ± 1.34 h
half-life ([1]; Sprague-Dawley, 60 mg/kg, G11: 2HCl, 60 mg/kg single oral dose, SyrSpend, n = 4): 2.84 ± 0.83 h
Particle size distribution d10 [2, 15]: 12.0 μm
Particle size distribution d50 [2, 15]: 42.8 μm
Particle size distribution d90 [2, 15]: 131.6 μm
Particle size distribution d10 [2, 16]: 8.4 μm
Particle size distribution d50 [2, 16]: 23.0 μm
Particle size distribution d90 [2, 16]: 57.7 μm
Particle size distribution d10 [2, 17]: 11.6 μm
Particle size distribution d50 [2, 17]: 35.7 μm
Particle size distribution d90 [2, 17]: 98.3 μm
Particle size distribution d10 [2, 18]: 1.9 μm
Particle size distribution d50 [2, 18]: 3.9 μm
Particle size distribution d90 [2, 18]: 8.0 μm
Particle size distribution d10 [2, 19]: 11.0 μm
Particle size distribution d50 [2, 19]: 33.1 μm
Particle size distribution d90 [2, 19]: 83.0 μm
Particle size distribution d10 [2, 20]: 3.1 μm
Particle size distribution d50 [2, 20]: 7.9 μm
Particle size distribution d90 [2, 20]: 17.3 μm
Particle size distribution d10 [2, 21]: 2.3 μm
Particle size distribution d50 [2, 21]: 5.6 μm
Particle size distribution d90 [2, 21]: 11.7 μm
Particle size distribution d10 [2, 22]: 2.0 μm
Particle size distribution d50 [2, 22]: 4.8 μm
Particle size distribution d90 [2, 22]: 10.1 μm
solubility [3]: 20 to 25 mg/mL

From patent US20200069592A1, “HSP90 INHIBITOR ORAL FORMULATIONS AND RELATED METHODS” (Samus Therapeutics, Inc., priority 2017, published 2020)
